Measured values from ChEMBL document CHEMBL1201862, “PubChem BioAssay data set” (2004).
Active and inactive are the calls of the source.

Legend:
[1] = Dose-response inhibition of insulin secretion in a rat insulinoma line at 5 mM glucose (AID 1117331); assay type: functional, cell-based; conditions: INS-1E
[2] = target: T1, Polyadenylate-binding protein 1 (Homo sapiens, UniProt P11940); experiment: PABP1 MLLE–PAM2 interaction inhibitors, dose response, miRNA deadenylation inhibitor project, biochemical, fluorescence polarization, Cy5-PAM2 peptide, secondary (AID 602260); assay type: functional; conditions: read-out: IC50_Mean
[3] = target: T1, Polyadenylate-binding protein 1; experiment: PABP1 MLLE–PAM2 binding inhibitor potency, dose response, biochemical, fluorescence polarization, FITC-PAM2 peptide (AID 602259); assay type: functional; conditions: read-out: IC50_Mean
[4] = target: T2, Low molecular weight phosphotyrosine protein phosphatase (Homo sapiens, UniProt P24666); assay type: functional; conditions: read-out: IC50_Mean;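 further: Dose-response confirmation assay measuring inhibition of LMPTP enzyme activity by fluorescence intensity read-out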
T2 sequence (P24666 whole entry): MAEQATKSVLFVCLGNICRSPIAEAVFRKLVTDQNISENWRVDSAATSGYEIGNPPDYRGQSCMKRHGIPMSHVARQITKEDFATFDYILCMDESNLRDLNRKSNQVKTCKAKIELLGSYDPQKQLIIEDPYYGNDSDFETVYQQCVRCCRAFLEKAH

[5] = target: Glutathione-S-transferase (Schistosoma japonicum, UniProt Q26513); experiment: biotin-GST/anti-GST TR-FRET signal inhibitors, dose response, artefact control for Vif-APOBEC3G degradation inhibitor project, biochemical (AID 1117362); assay type: functional
[6] = M. tuberculosis H37Rv growth inhibitors, H37Rv strain (AID 1626); assay type: functional
[7] = A375 melanoma cell viability loss, dose response, counter-screen for MITF inhibitor project, CellTiter-Glo luminescence, dry powder, set 4 (AID 624364); assay type: functional, cell-based; conditions: A-375;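 further: A375 melanoma cells are MITF independent so this is a counter screen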
[8] = A375 melanoma cell cytotoxicity, dose response, counter-screen for MITF inhibitor project, CellTiter-Glo luminescence, dry powder, set 2 (AID 624489); assay type: functional, cell-based; conditions: A-375;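 further: actives are compounds lowering A375 viability meaning general cytotoxicity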
HEK293 = experiment: HEK293T cell cytotoxicity, dose response, cytotoxicity control, ATP luminescence, cherry-pick samples (AID 687005); assay type: functional, cell-based; conditions: Homo sapiens;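 further: cells exposed to compound for 48 hours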
[9] = HEK293 Cytotoxicity Assay Measured in Cell-Based System Using Plate Reader - 7071-01_Inhibitor_Dose_CherryPick_Activity_Set2.; assay type: functional
[10] = target: G-protein coupled receptor 183 (Homo sapiens, UniProt P32249); experiment: SAR confirmation of small molecule antagonists of the EBI2 receptor via a luminescent beta-arrestin assa.; assay type: functional
[11] = target: Disintegrin and metalloproteinase domain-containing protein 17 (Homo sapiens, UniProt P78536); experiment: exosite inhibitors of ADAM17, dose response, biochemical (AID 743260)
[12] = ADAM10 protease inhibitors, dose response, selectivity assay for ADAM17 exosite inhibitor project, biochemical, FRET peptide substrate, recombinant human ADAM10 (AID 743259);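 further: ADAM10 enzyme cleaving a FRET peptide substrate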
Ephrin type-A receptor 4 = Ephrin type-A receptor 4 (Mus musculus, UniProt Q03137); experiment: inhibitors of EphA4 binding to KYL peptide, primary screen, biochemical, colorimetric, mouse EphA4 (AID 689); assay type: functional
[13] = Concentration-dependent survival of SW480 colon cancer line, luminescence detection with CellTiter-Glo, half-maximal inhibitory concentration (AID 1117338); assay type: functional
[14] = cytotoxicity toward HCT116 cells – cell-based, CellTiter-Glo luminescence, IC50, dose response (AID 1117332); assay type: functional; conditions: HCT-116
[15] = SNU-C1 cell viability reduction, dose response, CellTiter-Glo luminescence (AID 1117323); assay type: functional, cell-based
[16] = cytotoxicity toward HT-29 cells – cell-based, CellTiter-Glo luminescence, IC50, dose response (AID 1117330); assay type: functional
[17] = CellTiter-Glo luminescent dose response of DLD-1 viability loss (AID 1117352); assay type: functional
[18] = cytotoxicity in HEK-293T cells, dose response, cytotoxicity control for BCR NF-kB inhibitor project, luminescence, B-cell screen hits (AID 489021); assay type: functional, cell-based;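 further: HEK-293T cells carrying an NF-kB luciferase reporter; cells exposed to compound for about 14 hours before viability readout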

T1 sequence (P11940 whole entry): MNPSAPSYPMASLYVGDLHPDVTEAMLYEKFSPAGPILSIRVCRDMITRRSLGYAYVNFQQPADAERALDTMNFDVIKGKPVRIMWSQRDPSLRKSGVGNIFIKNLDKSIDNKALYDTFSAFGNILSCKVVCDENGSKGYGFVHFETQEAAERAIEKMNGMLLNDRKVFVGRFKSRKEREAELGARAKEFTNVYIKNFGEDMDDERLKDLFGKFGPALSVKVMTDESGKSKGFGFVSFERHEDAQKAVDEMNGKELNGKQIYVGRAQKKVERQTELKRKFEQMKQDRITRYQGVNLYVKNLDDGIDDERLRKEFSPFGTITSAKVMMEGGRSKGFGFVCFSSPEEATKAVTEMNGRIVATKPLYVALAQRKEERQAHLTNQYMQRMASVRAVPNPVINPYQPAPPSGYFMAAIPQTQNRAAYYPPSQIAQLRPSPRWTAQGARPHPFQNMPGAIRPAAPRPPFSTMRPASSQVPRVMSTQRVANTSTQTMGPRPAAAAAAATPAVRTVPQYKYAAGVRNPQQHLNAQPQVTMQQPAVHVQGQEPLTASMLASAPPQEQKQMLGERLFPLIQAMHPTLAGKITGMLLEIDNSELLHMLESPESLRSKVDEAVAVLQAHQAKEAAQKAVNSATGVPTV
Disintegrin and metalloproteinase domain-containing protein 17, sequence (P78536 whole entry, the tested form may be a part): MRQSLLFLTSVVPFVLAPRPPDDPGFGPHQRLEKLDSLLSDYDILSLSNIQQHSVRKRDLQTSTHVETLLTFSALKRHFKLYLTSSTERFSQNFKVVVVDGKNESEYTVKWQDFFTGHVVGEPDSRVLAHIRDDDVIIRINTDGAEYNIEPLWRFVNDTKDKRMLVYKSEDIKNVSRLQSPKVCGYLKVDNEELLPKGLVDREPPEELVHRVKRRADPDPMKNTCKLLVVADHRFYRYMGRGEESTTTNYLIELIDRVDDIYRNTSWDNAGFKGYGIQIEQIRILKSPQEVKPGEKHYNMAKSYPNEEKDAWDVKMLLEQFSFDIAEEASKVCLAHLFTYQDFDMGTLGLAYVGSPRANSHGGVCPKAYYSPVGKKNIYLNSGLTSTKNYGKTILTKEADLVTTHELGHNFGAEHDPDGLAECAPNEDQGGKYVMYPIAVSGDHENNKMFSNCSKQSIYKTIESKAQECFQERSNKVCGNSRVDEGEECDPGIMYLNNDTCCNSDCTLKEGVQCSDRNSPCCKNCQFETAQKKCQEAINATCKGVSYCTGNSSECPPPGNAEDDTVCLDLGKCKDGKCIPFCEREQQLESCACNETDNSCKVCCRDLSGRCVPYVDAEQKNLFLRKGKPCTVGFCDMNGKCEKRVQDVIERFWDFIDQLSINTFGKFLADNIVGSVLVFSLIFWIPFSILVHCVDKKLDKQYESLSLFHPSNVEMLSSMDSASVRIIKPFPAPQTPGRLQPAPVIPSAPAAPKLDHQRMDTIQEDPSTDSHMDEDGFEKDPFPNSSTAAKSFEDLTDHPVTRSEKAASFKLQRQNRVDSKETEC
G-protein coupled receptor 183, sequence (P32249 whole entry, the tested form may be a part): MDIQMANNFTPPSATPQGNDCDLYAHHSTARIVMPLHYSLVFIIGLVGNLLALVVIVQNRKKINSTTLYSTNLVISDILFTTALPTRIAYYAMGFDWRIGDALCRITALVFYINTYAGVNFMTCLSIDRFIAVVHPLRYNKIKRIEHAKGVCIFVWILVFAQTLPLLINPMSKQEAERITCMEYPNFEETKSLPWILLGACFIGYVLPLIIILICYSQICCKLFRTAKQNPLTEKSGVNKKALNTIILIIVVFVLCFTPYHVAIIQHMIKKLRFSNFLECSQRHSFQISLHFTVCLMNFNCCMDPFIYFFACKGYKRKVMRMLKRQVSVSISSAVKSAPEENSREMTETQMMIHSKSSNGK
Glutathione-S-transferase, sequence (Q26513 whole entry): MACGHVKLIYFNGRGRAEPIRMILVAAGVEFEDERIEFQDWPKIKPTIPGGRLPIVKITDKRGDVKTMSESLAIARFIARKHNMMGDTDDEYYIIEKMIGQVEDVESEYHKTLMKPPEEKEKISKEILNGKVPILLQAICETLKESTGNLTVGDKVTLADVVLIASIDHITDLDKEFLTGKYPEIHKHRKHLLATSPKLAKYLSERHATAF
Ephrin type-A receptor 4, sequence (Q03137 whole entry): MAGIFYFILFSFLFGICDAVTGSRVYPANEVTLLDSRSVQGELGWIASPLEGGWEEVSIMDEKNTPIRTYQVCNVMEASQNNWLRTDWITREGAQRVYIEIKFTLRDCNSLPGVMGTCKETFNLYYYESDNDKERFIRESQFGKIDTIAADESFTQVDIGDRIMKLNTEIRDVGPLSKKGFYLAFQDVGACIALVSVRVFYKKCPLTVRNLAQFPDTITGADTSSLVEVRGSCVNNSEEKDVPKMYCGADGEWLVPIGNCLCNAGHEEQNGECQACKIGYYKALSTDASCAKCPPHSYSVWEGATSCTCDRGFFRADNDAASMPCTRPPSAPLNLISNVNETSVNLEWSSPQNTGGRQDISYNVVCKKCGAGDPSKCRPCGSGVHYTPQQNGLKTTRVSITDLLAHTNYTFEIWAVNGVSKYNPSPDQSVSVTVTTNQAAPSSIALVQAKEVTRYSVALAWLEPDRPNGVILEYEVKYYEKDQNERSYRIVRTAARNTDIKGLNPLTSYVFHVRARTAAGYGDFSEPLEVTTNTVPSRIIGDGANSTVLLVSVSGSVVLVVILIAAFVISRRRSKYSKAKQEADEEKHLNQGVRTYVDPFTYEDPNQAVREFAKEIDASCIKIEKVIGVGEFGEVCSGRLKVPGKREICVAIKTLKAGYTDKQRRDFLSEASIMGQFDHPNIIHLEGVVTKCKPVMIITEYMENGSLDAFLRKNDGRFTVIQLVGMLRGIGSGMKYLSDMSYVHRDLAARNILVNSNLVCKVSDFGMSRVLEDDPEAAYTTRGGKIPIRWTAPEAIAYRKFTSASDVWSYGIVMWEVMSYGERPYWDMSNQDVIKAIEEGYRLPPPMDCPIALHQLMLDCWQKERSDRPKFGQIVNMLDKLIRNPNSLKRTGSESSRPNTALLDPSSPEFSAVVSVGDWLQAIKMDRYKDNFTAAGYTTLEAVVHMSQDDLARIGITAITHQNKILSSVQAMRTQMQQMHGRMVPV

For `CCC(CN)=C(c1ccccc1)c1ccccc1`, the IC50 [1] was 10.8 µM (inactive).
In the case of `CN=c1cccccc1S`, the IC50 [2] was > 66 µM (inactive), the IC50 [3] was > 66 µM (inactive) and the IC50 [4] was 49 µM (inactive). The IC50 [5] was > 100 µM (active).
In the case of `CCCC(=O)C1=C(NCCc2c(C)[nH]c3ccc(C)cc23)CCCC1=O`, the IC50 [6] was > 100 µM (active).
In the case of `CN1CCN(C2=C(NC(=O)c3ccc(Br)cc3)C(=O)c3ccccc3C2=O)CC1`, the AC50 [7] was 23.5 µM (active) and the AC50 [8] was 8.99 µM (active).
For `C[C@@H]1CCCCO[C@H](CN(C)Cc2ccccc2)[C@H](C)CN([C@@H](C)CO)C(=O)c2cc(NS(=O)(=O)c3cccs3)ccc2O1`, the AC50 (HEK293) was 30.9 µM (active) and the AC50 [9] was 30.9 µM (active).
For `O=C(/C=C/c1ccccc1F)N1CCN(S(=O)(=O)c2ccc(Br)cc2)CC1`, the IC50 [10] was 0.252 µM (active).
In the case of `COC(=O)[C@H](CC(C)C)N(CCc1cn(Cc2ccccc2)nn1)S(=O)(=O)c1ccccc1Br`, the IC50 [11] was > 69.5 µM (inactive) and the IC50 [12] was > 69.5 µM (inactive).
For `O=C(Nc1cccc(F)c1)N[C@H]1CC[C@H](CCNS(=O)(=O)c2cccc(Cl)c2)O[C@@H]1CO`, the AC50 (HEK293) was 26 µM (active) and the AC50 [9] was 26 µM (active).
With `O=C(NCC1COc2ccccc2O1)c1cccc(S(=O)(=O)N2CCN(c3ccccc3)CC2)c1` (stereo not given) the IC50 [11] was > 69.5 µM (inactive) and the IC50 [12] was > 69.5 µM (inactive).
With `CCCN1C(=O)/C(=C/C=C2\N(CC)c3ccccc3C2(C)C)SC1=S` the IC50 (Ephrin type-A receptor 4) was 5.08 µM (active).
For `CC(C(=O)O)c1cccc(C(=O)c2ccccc2)c1` (stereo not given) [KETOPROFEN], the IC50 [13] was 10.3 µM (inactive), the IC50 [14] was 10.5 µM (inactive) and the IC50 [15] was 3.8 µM (active). For the same compound, the IC50 [16] was 14.4 µM (inactive) and the IC50 [17] was 8.64 µM (inactive).
For `Nc1ccccc1SCC(=O)Nc1nc(-c2ccccc2)cs1`, the IC50 [6] was > 100 µM (active) and the IC50 [18] was > 80 µM (inactive).
